These results are taken from US12557811B2, “Effective and eco-friendly disinfectant” (The Hong Kong University of Science and Technology, priority 2022, dated 2026).

The half-life is the time in which the quantity being followed falls by half.

Where two headings read alike, the source gives them in different places.

The nature of series [1]: Degradation kinetics with solar irradiation.
Series [2] is described as follows: physchem.
Series [3] concerns E. coli. Put plainly: Disinfection experiments, membrane filter enumeration, E. coli. Format: cell-based, Escherichia coli. The procedure:
Disinfection experiments were performed in phosphate buffer saline (PBS; 10 mM, pH 7.2) with an initial concentration of E. coli of 10^6-10^7 colony forming units per milliliter (CFU mL^−1). Different concentrations of disinfection byproducts were added to the cell suspensions individually at room temperature (˜22° C.) with a contact time of 5 min. After the given contact time, the microorganism cells were enumerated following a membrane filter method. Briefly, serial ten-fold dilutions were conducted for the disinfected samples and the control sample without disinfection. Each diluted suspension was subjected to filtration through 0.45-μm membrane, which was then placed on a petri dish containing m-FC medium. After incubation at 45° C. for 24 hours, the colony forming units within a statistically reasonable range (20-80) were counted. The disinfection experiments were performed in duplicate. All the materials for the disinfection experiments were autoclaved at 121° C. for 15 min and cooled to room temperature before use.
(§1) The disinfection experiments were performed in PBS solutions (10 mM, pH 7.2) with an initial concentration of E. coli, S. aureus, or C. albicans of 10^6-10^7 CFU mL^−1. Different concentrations of 2,6-DCQ or PCMX were added to the cell suspensions at room temperature (˜22° C.) After the given contact time (i.e., 5 min), the microorganism cells were enumerated following a membrane filter method. Briefly, serial ten-fold dilutions were conducted for the disinfected samples and the control sample without disinfection. Each diluted suspension was filtered through a 0.45-μm filter paper, which was then placed on a petri dish. The petri dishes containing E. coli, S. aureus, and C. albicans were incubated in m-FC medium at 45° C. for 24 h, Tryptone Soya broth at 37° C. for 24 h, and Sabouraud Dextrose broth at 37° C. for 24 h, respectively. After incubation, the colony forming units within a statistically reasonable range (20-80) were counted. The disinfection experiments were performed in duplicate. All the materials for the disinfection experiments were autoclaved at 121° C. for 15 min and cooled to room temperature before use.
The disinfection experiments were performed in PBS solutions (10 mM, pH 7.2) with an initial concentration of E. coli of 10^6-10^7 CFU mL^−1. 2,5-Dichloro-1,4-benzoquinone (7.5 and 15 mg L^−1) or 2,6-DCQ (7.5 and 15 mg L^−1) was added to the cell suspensions at room temperature (˜22° C.). After the given contact time (i.e., 5 min), the microorganism cells were enumerated following a membrane filter method. Briefly, serial ten-fold dilutions were conducted for the disinfected samples and the control sample without disinfection. Each diluted suspension was subjected to filtration through 0.45-μm membrane, which was then placed on a petri dish. The petri dishes containing E. coli were incubated in m-FC medium at 45° C. for 24 hours. After incubation, the colony forming units within a statistically reasonable range (20-80) were counted. The disinfection experiments were performed in duplicate. All the materials for the disinfection experiments were autoclaved at 121° C. for 15 min and cooled to room temperature before use.
The disinfection experiments were performed in PBS solutions (10 mM, pH 7.2) with an initial concentration of E. coli of 10^6-10^7 CFU mL^−1. 2,6-DBQ (2,6-dibromo-1,4-benzoquinone), 2,6-DIQ (2,6-diiodo-1,4-benzoquinone), or 2,6-DCQ was added to the cell suspensions at room temperature (˜22° C.) with a contact time of 5 min. After the given contact time, the microorganism cells were enumerated following a membrane filter method. Briefly, serial ten-fold dilutions were conducted for the disinfected samples and the control sample without disinfection. Each diluted suspension was subjected to filtration through 0.45-μm membrane, which was then placed on a petri dish. The petri dishes containing E. coli were incubated in m-FC medium at 45° C. for 24 hours.

A short description of series [4]: Degradation kinetics without solar irradiation (darkness). It is filed as physicochemical.
For series [5], the system named is S. aureus. Put plainly: Disinfection experiments, membrane filter enumeration, S. aureus. Format: cell-based, Staphylococcus aureus. The settings on record: for inactivation rate constant / Dose for achieving 3-log (99.9%) inactivation: S. aureus. The procedure:
as §1

The test system of series [6] is E. coli, S. aureus and C. albicans. The experiment in a line: Disinfection experiments, comparison across the three types of pathogens. It is filed as cell-based, Escherichia coli, Staphylococcus aureus, Candida albicans. The procedure:
as §1

For series [7], the system named is C. albicans. Put plainly: Disinfection experiments, membrane filter enumeration, C. albicans. It is filed as cell-based, Candida albicans. Conditions: for inactivation rate constant / Dose for achieving 3-log (99.9%) inactivation: C. albicans. The procedure:
as §1

Series [8] deals with P. dumerilii embryos. The experiment in a line: P. dumerilii embryo developmental toxicity. It is filed as in vivo, Platynereis dumerilii. The text has this:
The doses of 2,6-DCQ and PCMX for 3-log E. coli inactivation (pH 7.2) were set as the in-use concentrations, which were serially diluted and added to the embryos of a marine polychactc, Platynereis dumerilii, at 12-hour postfertilization. A dilution factor was defined as the ratio of the in-use concentration to the exposure concentration. Each exposure set contained a control sample (i.e., the embryos at 12-hour postfertilization developed in seawater). By 24-hour postfertilization, normally developed embryos should have reached the first larval stage. An inverted stereomicroscope (40× magnification) was used to observe the larvae. The normal development percentage was calculated as the ratio of normally developed embryos to total embryos. By plotting the curve of the normal development percentage versus the dilution factor, the EC50,DF value (i.e., the dilution factor corresponding to 50% of the normal development percentage of the control sample) was obtained using SigmaPlot 12. The developmental toxicity test was conducted in duplicate.

Series [9] in a line: Storage stability in solid form or in an organic solvent. Format: physicochemical.
Series [10] deals with rainbow trout. Conditions: environmentally relevant concentrations (˜4.2 μg L^−1); cited from earlier work.
The subject of series [11] is antibiotic resistance genes. The settings on record: environmentally relevant concentrations; cited from earlier work.
The subject of series [12] is zebrafish embryos. Conditions: in vivo; cited from earlier work.
Setting [13] is: pH not given, read-out: Half-life, without solar irradiation (converted).

The compound `Oc1ccc(Br)cc1Br` [2,4-Dibromophenol, 2,4-dibromophenol] had a half-life in series [1] of 2100 min. Also, in series [1] (pH not given), the “k, degradation, with solar irradiation” value is 0.0201 h⁻¹.

Compound `Oc1ccc(Cl)cc1Cl` [2,4-Dichlorophenol, 2,4-dichlorophenol] had a half-life in [2] of 2640 min. Further, the “k, degradation, with solar irradiation” value in series [1] (pH not given) was 0.0157 h⁻¹.

Consider `Oc1ccc(I)cc1I` [2,4-Diiodophenol, 2,4-diiodophenol], for which, in series [1] (pH not given), the “Half-life, with solar irradiation” value was determined as 83 h and the “k, degradation, with solar irradiation” value came to 0.0083 h⁻¹.

With `O=C1C=C(Cl)C(=O)C=C1Cl` [2,5-DCQ, 2,5-dichloro-1,4-benzoquinone], the “disinfection efficacy compared with 2,6-DCQ” value in [3] (pH 7.2) is reported as “comparable disinfection efficacy”.

Turning to `Oc1cc(Br)c(O)cc1Br` [2,5-Dibromohydroquinone, 2,5-dibromohydroquinone], in series [4] (pH not given), the “k, degradation, without solar irradiation” value came to 0.0767 h⁻¹. Besides, the half-life in series [4] (setting [13]) and in series [1] was 9 min throughout. Also, the “k, degradation, with solar irradiation” value in series [1] (pH not given) was 0.787 h⁻¹.

As to `Oc1cc(Cl)c(O)cc1Cl` [2,5-Dichlorohydroquinone, 2,5-dichlorohydroquinone], the “k, degradation, without solar irradiation” value in series [4] (pH not given) worked out at 0.0922 h⁻¹. Further, the values for the half-life in series [4] (setting [13]) and in [1] were 7.8 min and 6.6 min, respectively. Moreover, the “k, degradation, with solar irradiation” value in series [1] (pH not given) turned out to be 0.101 h⁻¹.

Turning to `Oc1cc(I)c(O)cc1I` [2,5-Diiodohydroquinone, 2,5-diiodohydroquinone], the “k, degradation, without solar irradiation” value in [4] (pH not given) worked out at 0.078 h⁻¹. Moreover, the half-life in series [4] (setting [13]) and in series [1] was 9 min throughout. Moreover, the “k, degradation, with solar irradiation” value in series [1] (pH not given) stood at 0.756 h⁻¹.

With `O=C1C=C(Br)C(=O)C(Br)=C1` [2,6-DBQ, 2,6-dibromo-1,4-benzoquinone], in [3] (pH 7.2), the “disinfection efficacy compared with 2,6-DCQ” value is given as “comparable disinfection efficacy”.

With `O=C1C=C(Cl)C(=O)C(Cl)=C1` [2,6-DCQ, 2,6-dichloro-1,4-benzoquinone], the inactivation rate constant in series [5] was 1.20 L/mg/h; in series [5] (pH 7.2, contact time 5 min) it was 1.20 L/mg/h; in [3], 5.50 L/mg/h; in series [3] (pH 7.2) it was 5.50 L/mg/h; in [7] it was 1.87 L/mg/h; in series [7] (pH 7.2, contact time 5 min) it was 1.87 L/mg/h. The “Dose for achieving 3-log (99.9%) inactivation” value amounted to 29.4 mg/L in series [5] (pH 7.2, contact time 5 min); 12.8 mg/L in series [3] (pH 7.2); 35.7 mg/L in series [7] (pH 7.2, contact time 5 min). Besides, the inactivation was 99.9% in [5] (Staphylococcus aureus ATCC 25923, contact time of 5 minutes); 99.9% in [3]; 99.9% in series [7] (Candida albicans ATCC 14053, contact time of 5 minutes). For the same compound, the “dose required for 99.9% inactivation, times lower than those of the other nine disinfection byproducts” value in series [3] (E. coli, contact time of 5 minutes) is given as 8.8-500 times. For the same compound, the “inactivation rate constant, times greater than those of other disinfection byproducts” value in series [3] (E. coli, versus the other nine disinfection byproducts) was 8.8-500 times. Further, the “disinfection efficacy, times higher than PCMX” value in series [6] is recorded as 10-15 times. In addition, the “reduction of disinfectant doses for 99.9% inactivation by switching from PCMX to 2,6-DCQ” value in [6] (E. coli, S. aureus and C. albicans) is given as 89-93%. For the same compound, the “in-use doses for 99.9% inactivation, times lower than the corresponding doses of PCMX” value in series [6] (E. coli, S. aureus and C. albicans, contact time 5 min) was 10-15 times. Further, the half-life was 3930 min in series [4] (buffer, pH 6.2, read-out: half-life in darkness (converted)) and 906 min in series [4] (buffer, pH 7.2, read-out: half-life in darkness (converted)). In addition, the “Half-life, without solar irradiation” value in series [4] (pH 6.2) is 65.5 h; in series [4] (pH 7.2), 15.1 h; in series [4] (pH 8.2), 1.74 h. Moreover, the “k, degradation, without solar irradiation” value in [4] (pH 6.2) worked out at 0.010 h⁻¹; in series [4] (pH 7.2), 0.046 h⁻¹; in series [4] (pH 8.2) it was 0.397 h⁻¹. The “developmental toxicity, times lower than PCMX” value in series [8] (48 hours after discharge into seawater) is given as 31 times. Further, the “developmental toxicity compared with PCMX” value in series [8] (after 2 hours of degradation in seawater) is reported as “lower developmental toxicity”. Besides, the “Half-life, with solar irradiation” value in [1] (pH 6.2) was 4.13 h; in [1] (pH 8.2), 1.33 h. Besides, the results for the “k, degradation, with solar irradiation” value in [1] (pH 6.2), in [1] (pH 7.2) and in series [1] (pH 8.2) were 0.17 h⁻¹, 0.22 h⁻¹ and 0.52 h⁻¹, respectively. Besides, in [1] (pH 7.2), the “half-life under solar irradiation” value came out at 3.20 h. The “half-lives, times shorter than those of PCMX” value in series [1] (seawater (pH 8.2), with and without solar irradiation) was “about 200 times”. Further, the time remaining stable entry in series [9] is on record as “at least 24 months”.

With `O=C1C=C(I)C(=O)C(I)=C1` [2,6-DIQ, 2,6-diiodo-1,4-benzoquinone], the “disinfection efficacy compared with 2,6-DCQ” value in series [3] (pH 7.2) is “comparable disinfection efficacy”.

For “para-chloro-meta-xylenol [PCMX, reference compound]”, in [10], the “effects of chronic exposure in rainbow trout” value is “gene regulation and morphological changes”. Also, the inactivation rate constant in series [5] was determined as 0.21 L/mg/h; in [5] (pH 7.2, contact time 5 min), 0.21 L/mg/h; in [3] (E. coli) it was 0.66 L/mg/h; in series [3] (E. coli, pH 7.2, contact time 5 min), 0.66 L/mg/h; in series [7] it was 0.21 L/mg/h; in series [7] (pH 7.2, contact time 5 min), 0.21 L/mg/h. The “Dose for achieving 3-log (99.9%) inactivation” value in series [5] (pH 7.2, contact time 5 min) was 312 mg/L; in series [3] (pH 7.2), 188 mg/L; in [7] (pH 7.2, contact time 5 min), 325 mg/L. Also, the “in-use doses for 99.9% inactivation, times higher than those of 2,6-DCQ” value in series [6] (three types of pathogens, contact time 5 min) is on record as 10-15 times. Moreover, the “Half-life, without solar irradiation” value was 5578 h in [4] (pH 8.2) and roughly 5760 h in [4] (seawater pH (pH 8.2)). In [4] (pH 8.2), the “k, degradation, without solar irradiation” value amounted to 0.00012 h⁻¹. Also, the “effect on antibiotic resistance genes” value in [11] is on record as “promote the spread of antibiotic resistance genes”. Further, the “adverse effects in zebrafish embryos” value in series [12] is “mortality, morphological malformations, and neurotoxicity”. In addition, the “Half-life, with solar irradiation” value in series [1] (pH 8.2) is listed as 257 h. In addition, the “k, degradation, with solar irradiation” value in series [1] (pH 8.2) is 0.0027 h⁻¹. Moreover, the “half-life under solar irradiation” value in [1] (pH 8.2, seawater pH) was found to be 257 h.
